In a melting point compilation (Tetko et al.; mined from patent text by program, amines drawn as free bases though some values may be those of a salt):

| SMILES | melting point [°C] |
| --- | --- |
| Nc1c(F)c(F)[nH]c(=O)c1F | 199 to 201 |
| CCOC(=O)c1cccc(-c2coc3cc(O)c(O)cc3c2=O)c1 | 217 to 218 |
| COC(=O)CCN1CCC(=C2c3ccn(C)c3CCn3ncnc32)CC1 | 139 |
| Cc1cc(-c2cc(C(F)(F)F)nc(-c3ccnc(-c4ccc(S(N)(=O)=O)s4)c3)n2)ccc1Cl | 280 |
| CCC1=Nc2c(C)nn(C)c2C2=NCCN12 | 148 to 150 |
| CC(=O)N(CCOc1ccc(CC2SC(=O)NC2=O)cc1)c1ncccn1 (stereo not drawn) | 137 |
| CC(=O)c1csc2ccc(OS(=O)(=O)c3ccccc3)cc12 | 129 to 130 |
| Cn1cc2c(cc1=O)CCCC2=O | 94 to 97 |
| CS(=O)(=O)c1cc(Cl)ccc1C(=O)c1cnoc1C1CC1 | 183 to 185 |
| Cc1noc(NC(=O)c2cnccc2C(F)(F)F)c1Cl | 153 to 156 |
| CC(C)(C)OC(=O)N[C@H](Cc1ccc(Cl)c(Cl)c1)C(=O)N1CCC[C@H]1C(=O)NC1CCc2n[nH]cc2C1 (stereo partly drawn) | 116 to 119 |
| CC(C)(C)c1ccc(CCCCC(O)CC2CCCC2)cc1NC(=O)CC1c2ccccc2Oc2ccccc21 (stereo not drawn) | 132 to 133 |
| COc1ccccc1N1CCN(CC(Cc2ccccc2)C(=O)O)CC1 (stereo not drawn) | 155 to 158 |
| COc1cc(Nc2c(C#N)cnc3cc(-c4ccc(CN5CCOCC5)c(CN5CCOCC5)c4)ccc23)c(Cl)cc1Cl | 198 to 200 |
| CCCCN(C1CS(=O)(=O)c2ccccc21)S(C)(=O)=O (stereo not drawn) | 171 to 173 |
| C#CCOC(=O)c1ccc(O)cc1 | 82 to 84 |
| CC(C)CNc1c(N)c2nnnn2c2ccccc12 | 148 to 150 |
| CN(C)CCNC(=O)c1ccccc1-c1nnc(CSCCOc2ccccc2)o1 | 80 to 85 |
| CCOC(=O)C1=C(C)N(C(C)=O)C(c2cscn2)=NC1c1cccc(OC)c1 (stereo not drawn) | 130 to 131 |
| Cc1cc(F)ccc1-c1cnccn1 | 66 to 68 |
| O=c1cnn(-c2ccc(C(c3ccc(Cl)cc3)c3nc(-c4ccccc4)cs3)c(Cl)c2)c(=O)[nH]1 (stereo not drawn) | 90 |
| CCCCCCCCCCOc1ccc2cc(C#CC(C)OC(=O)CC)ccc2c1 (stereo not drawn) | 74 to 75 |
| CC(C)(C)c1cc(CCc2ccccc2NC(=O)NCCCc2cccs2)cc(C(C)(C)C)c1O | 150 |
| O=C(O)c1ccc(-c2cnc(-c3ccc(Cl)cc3)o2)cc1 | 268 to 270 |

| SMILES | melting point [°C] |
| --- | --- |
| COc1cc(Cn2cnc3c(-c4ccco4)ncnc32)cc(OC)c1OC | 195 to 196 |
| COc1ccc(C(=O)NCc2ccc(C(=O)O)cc2)cc1C12CC3CC(CC(C3)C1)C2 | 286 to 287 |
| Brc1cc(Cc2ccc3ccccc3c2)cc(Br)c1OCc1nnn[nH]1 | 183 to 184 |
| Nc1cccc(-c2ccc(C3=CCCN(Cc4ccccc4)C3)cc2)n1 | 270 to 272 |
| CS(=O)(=O)c1ccc(Oc2cc(OCc3cccc(Cl)n3)c3[nH]c(C4=NCC(CC(N)=O)S4)cc3c2)cc1 (stereo not drawn) | 147 to 148 |
| CNC(=O)N(CCN1CCC(Nc2nc3ccccc3n2Cc2ccc(F)cc2)CC1)c1nccs1 | 172 |
| O=c1c2ccccc2ccc2cc(CCO)ccc12 | 73 to 75 |
| Cc1ccc(-c2nc(COc3ccc(CCCCn4ccnc4)cc3)co2)s1 | 82 to 83 |
| CS(=O)(=O)c1ccc(-c2cccn2-c2ccc(F)cc2F)cc1 | 122 to 125 |
| N#CC(=Cc1cc(O)c(O)c(Br)c1)C(=O)Nc1cccc(Cl)c1 | 266 to 270 |
| CCCCCCCCCCCCCC(=O)Nc1ccc(Cl)c(NC2=NN(c3c(Cl)cc(Cl)cc3Cl)C(=O)C2n2ccnc2)c1 (stereo not drawn) | 172 to 174 |
| Cc1nsnc1-n1cc(C(=O)O)c(=O)c2cc(F)c(Cl)nc21 | 247 to 249 |
| Cc1ccc(S(=O)(=O)OCC2Cc3c(Br)cccc3O2)cc1 (stereo not drawn) | 90 to 91 |
| Oc1ccc(-c2nn(C3CCCC3)c3c(C(F)(F)F)cccc23)c(O)c1 | 159 to 160 |
| O=C(Oc1ccccc1)N1CCC(Oc2ccc(F)cc2)CC1 | 98.5 to 100 |
| CCOC(=O)c1cc(OCC)c(OCC)cc1[N+](=O)[O-] | 53 to 54 |
| Nc1cc(Oc2ccc3c(C(=O)Nc4cccc(C(F)(F)F)c4)cccc3c2)ncn1 | 243 to 244 |
| O=C(Nc1ccc(Oc2c(Cl)cc(C(F)(F)F)c(Cl)c2Cl)cc1Cl)Nc1nonc1-c1ccccc1 | 209 |
| O=C(O)CNC(=O)CCc1cccc(-c2nc(=O)c3ccccc3s2)n1 | 219 to 220 |
| C#CCCCCn1ncc2c(N)c(C(=O)OCC)c(C)nc21 | 63 to 65 |
| N#Cc1ccc(N2Cc3ccccc3C2)c2ccccc12 | 156 to 158 |
| COCCOCCOCCOc1ccc(-c2nc(C(=O)Nc3nccs3)c(-c3ccc(Cl)cc3)[nH]2)cc1 | 120 to 122 |
| CCOC(=O)c1nn(-c2cccc(C)c2)c(=O)c2c(N)scc12 | 190 to 191 |
| NS(=O)(=O)c1cc2c(cc1Cl)C(=O)N(CCN1CCOCC1)C2=O | 218 to 219 |
